“And” between values parts separate entries of the source, which are not always exact repeats. Equal entries are not always repeated.
Test: molar heat capacity at constant pressure; xn = mol fraction of the nth substance listed
Conditions: 100 kPa

[Si] [silicon] + [Li]
Conditions	molar heat capacity at constant pressure
660 K, Crystal of intercomponent compound 1, relaxation calorimetry + DSC, x2 = 0.81	29.4 J/K/mol
660 K, Crystal of intercomponent compound 2, relaxation calorimetry + DSC, x2 = 0.804	30.54 J/K/mol
661.54 K, Crystal of intercomponent compound 2, Small sample (50 mg) DSC, x2 = 0.804	30.1 J/K/mol and 30.48 J/K/mol
661.72 K, Crystal of intercomponent compound 1, Small sample (50 mg) DSC, x2 = 0.81	29.4 J/K/mol
661.75 K, Crystal of intercomponent compound 1, Small sample (50 mg) DSC, x2 = 0.81	29.72 J/K/mol
671.45 K, Crystal of intercomponent compound 2, Small sample (50 mg) DSC, x2 = 0.804	30.27 J/K/mol and 30.68 J/K/mol
671.64 K, Crystal of intercomponent compound 1, Small sample (50 mg) DSC, x2 = 0.81	29.62 J/K/mol
671.66 K, Crystal of intercomponent compound 1, Small sample (50 mg) DSC, x2 = 0.81	29.83 J/K/mol
680 K, Crystal of intercomponent compound 1, relaxation calorimetry + DSC, x2 = 0.81	29.94 J/K/mol
680 K, Crystal of intercomponent compound 2, relaxation calorimetry + DSC, x2 = 0.804	30.97 J/K/mol
681.36 K, Crystal of intercomponent compound 2, Small sample (50 mg) DSC, x2 = 0.804	30.52 J/K/mol and 30.84 J/K/mol
681.56 K, Crystal of intercomponent compound 1, Small sample (50 mg) DSC, x2 = 0.81	29.62 J/K/mol
681.57 K, Crystal of intercomponent compound 1, Small sample (50 mg) DSC, x2 = 0.81	30.16 J/K/mol
691.29 K, Crystal of intercomponent compound 2, Small sample (50 mg) DSC, x2 = 0.804	30.56 J/K/mol and 31.08 J/K/mol
691.47 K, Crystal of intercomponent compound 1, Small sample (50 mg) DSC, x2 = 0.81	29.94 J/K/mol
691.48 K, Crystal of intercomponent compound 1, Small sample (50 mg) DSC, x2 = 0.81	30.38 J/K/mol
700 K, Crystal of intercomponent compound 1, relaxation calorimetry + DSC, x2 = 0.81	30.53 J/K/mol
700 K, Crystal of intercomponent compound 2, relaxation calorimetry + DSC, x2 = 0.804	31.4 J/K/mol
701.21 K, Crystal of intercomponent compound 2, Small sample (50 mg) DSC, x2 = 0.804	31.04 J/K/mol and 31.36 J/K/mol
701.37 K, Crystal of intercomponent compound 1, Small sample (50 mg) DSC, x2 = 0.81	30.27 J/K/mol
701.39 K, Crystal of intercomponent compound 1, Small sample (50 mg) DSC, x2 = 0.81	30.6 J/K/mol
711.13 K, Crystal of intercomponent compound 2, Small sample (50 mg) DSC, x2 = 0.804	31.38 J/K/mol and 31.59 J/K/mol
711.28 K, Crystal of intercomponent compound 1, Small sample (50 mg) DSC, x2 = 0.81	30.6 J/K/mol
711.3 K, Crystal of intercomponent compound 1, Small sample (50 mg) DSC, x2 = 0.81	30.82 J/K/mol
720 K, Crystal of intercomponent compound 1, relaxation calorimetry + DSC, x2 = 0.81	31.18 J/K/mol
720 K, Crystal of intercomponent compound 2, relaxation calorimetry + DSC, x2 = 0.804	31.84 J/K/mol
721.05 K, Crystal of intercomponent compound 2, Small sample (50 mg) DSC, x2 = 0.804	31.75 J/K/mol and 32.03 J/K/mol
721.2 K, Crystal of intercomponent compound 1, Small sample (50 mg) DSC, x2 = 0.81	30.49 J/K/mol
721.22 K, Crystal of intercomponent compound 1, Small sample (50 mg) DSC, x2 = 0.81	31.15 J/K/mol
730.97 K, Crystal of intercomponent compound 2, Small sample (50 mg) DSC, x2 = 0.804	32.1 J/K/mol and 32.36 J/K/mol
731.12 K, Crystal of intercomponent compound 1, Small sample (50 mg) DSC, x2 = 0.81	31.04 J/K/mol
731.13 K, Crystal of intercomponent compound 1, Small sample (50 mg) DSC, x2 = 0.81	31.37 J/K/mol
740 K, Crystal of intercomponent compound 1, relaxation calorimetry + DSC, x2 = 0.81	31.88 J/K/mol
740 K, Crystal of intercomponent compound 2, relaxation calorimetry + DSC, x2 = 0.804	32.3 J/K/mol
740.89 K, Crystal of intercomponent compound 2, Small sample (50 mg) DSC, x2 = 0.804	32.38 J/K/mol and 32.64 J/K/mol
741.03 K, Crystal of intercomponent compound 1, Small sample (50 mg) DSC, x2 = 0.81	31.26 J/K/mol
741.04 K, Crystal of intercomponent compound 1, Small sample (50 mg) DSC, x2 = 0.81	31.7 J/K/mol
750.81 K, Crystal of intercomponent compound 2, Small sample (50 mg) DSC, x2 = 0.804	32.68 J/K/mol and 32.92 J/K/mol
750.95 K, Crystal of intercomponent compound 1, Small sample (50 mg) DSC, x2 = 0.81	31.81 J/K/mol
750.96 K, Crystal of intercomponent compound 1, Small sample (50 mg) DSC, x2 = 0.81	32.14 J/K/mol
760 K, Crystal of intercomponent compound 1, relaxation calorimetry + DSC, x2 = 0.81	32.63 J/K/mol
760 K, Crystal of intercomponent compound 2, relaxation calorimetry + DSC, x2 = 0.804	32.82 J/K/mol
760.73 K, Crystal of intercomponent compound 2, Small sample (50 mg) DSC, x2 = 0.804	33.14 J/K/mol and 33.47 J/K/mol
760.87 K, Crystal of intercomponent compound 1, Small sample (50 mg) DSC, x2 = 0.81	32.14 J/K/mol and 32.58 J/K/mol
770.64 K, Crystal of intercomponent compound 2, Small sample (50 mg) DSC, x2 = 0.804	33.77 J/K/mol and 34.02 J/K/mol
770.79 K, Crystal of intercomponent compound 1, Small sample (50 mg) DSC, x2 = 0.81	33.23 J/K/mol and 33.34 J/K/mol
771.71 K, Crystal of intercomponent compound 1, Small sample (50 mg) DSC, x2 = 0.81	33.67 J/K/mol
773.69 K, Crystal of intercomponent compound 1, Small sample (50 mg) DSC, x2 = 0.81	33.78 J/K/mol
775.67 K, Crystal of intercomponent compound 1, Small sample (50 mg) DSC, x2 = 0.81	33.89 J/K/mol
777.66 K, Crystal of intercomponent compound 1, Small sample (50 mg) DSC, x2 = 0.81	34.22 J/K/mol
779.64 K, Crystal of intercomponent compound 1, Small sample (50 mg) DSC, x2 = 0.81	34.39 J/K/mol
780 K, Crystal of intercomponent compound 1, relaxation calorimetry + DSC, x2 = 0.81	33.45 J/K/mol
780 K, Crystal of intercomponent compound 2, relaxation calorimetry + DSC, x2 = 0.804	33.49 J/K/mol
780.56 K, Crystal of intercomponent compound 2, Small sample (50 mg) DSC, x2 = 0.804	34.41 J/K/mol and 34.69 J/K/mol
780.7 K, Crystal of intercomponent compound 1, Small sample (50 mg) DSC, x2 = 0.81	34 J/K/mol
780.71 K, Crystal of intercomponent compound 1, Small sample (50 mg) DSC, x2 = 0.81	34.22 J/K/mol
781.63 K, Crystal of intercomponent compound 1, Small sample (50 mg) DSC, x2 = 0.81	34.88 J/K/mol
783.61 K, Crystal of intercomponent compound 1, Small sample (50 mg) DSC, x2 = 0.81	34.99 J/K/mol
785.59 K, Crystal of intercomponent compound 1, Small sample (50 mg) DSC, x2 = 0.81	35.21 J/K/mol
787.58 K, Crystal of intercomponent compound 1, Small sample (50 mg) DSC, x2 = 0.81	35.32 J/K/mol
789.57 K, Crystal of intercomponent compound 1, Small sample (50 mg) DSC, x2 = 0.81	35.32 J/K/mol
790.48 K, Crystal of intercomponent compound 2, Small sample (50 mg) DSC, x2 = 0.804	34.65 J/K/mol and 35.21 J/K/mol
790.61 K, Crystal of intercomponent compound 1, Small sample (50 mg) DSC, x2 = 0.81	34.99 J/K/mol
790.63 K, Crystal of intercomponent compound 1, Small sample (50 mg) DSC, x2 = 0.81	34.55 J/K/mol
791.55 K, Crystal of intercomponent compound 1, Small sample (50 mg) DSC, x2 = 0.81	35.54 J/K/mol
793.53 K, Crystal of intercomponent compound 1, Small sample (50 mg) DSC, x2 = 0.81	35.76 J/K/mol
795.51 K, Crystal of intercomponent compound 1, Small sample (50 mg) DSC, x2 = 0.81	36.31 J/K/mol
797.49 K, Crystal of intercomponent compound 1, Small sample (50 mg) DSC, x2 = 0.81	36.96 J/K/mol
800 K, Crystal of intercomponent compound 1, relaxation calorimetry + DSC, x2 = 0.81	34.34 J/K/mol
800 K, Crystal of intercomponent compound 2, relaxation calorimetry + DSC, x2 = 0.804	34.61 J/K/mol
800.39 K, Crystal of intercomponent compound 2, Small sample (50 mg) DSC, x2 = 0.804	35.13 J/K/mol and 35.58 J/K/mol
810.3 K, Crystal of intercomponent compound 2, Small sample (50 mg) DSC, x2 = 0.804	35.47 J/K/mol and 36.02 J/K/mol
820 K, Crystal of intercomponent compound 2, relaxation calorimetry + DSC, x2 = 0.804	36.83 J/K/mol
820.22 K, Crystal of intercomponent compound 2, Small sample (50 mg) DSC, x2 = 0.804	36.24 J/K/mol and 36.35 J/K/mol
830.13 K, Crystal of intercomponent compound 2, Small sample (50 mg) DSC, x2 = 0.804	38.35 J/K/mol and 38.57 J/K/mol
840 K, Crystal of intercomponent compound 2, relaxation calorimetry + DSC, x2 = 0.804	41.72 J/K/mol
840.04 K, Crystal of intercomponent compound 2, Small sample (50 mg) DSC, x2 = 0.804	41.23 J/K/mol and 41.78 J/K/mol
849.95 K, Crystal of intercomponent compound 2, Small sample (50 mg) DSC, x2 = 0.804	45.22 J/K/mol and 47.32 J/K/mol
859.87 K, Crystal of intercomponent compound 2, Small sample (50 mg) DSC, x2 = 0.804	51.54 J/K/mol and 53.53 J/K/mol
860 K, Crystal of intercomponent compound 2, relaxation calorimetry + DSC, x2 = 0.804	52.81 J/K/mol
869.79 K, Crystal of intercomponent compound 2, Small sample (50 mg) DSC, x2 = 0.804	60.18 J/K/mol and 65.17 J/K/mol

Reference: the NIST ThermoML archive (doi:10.1016/j.jct.2015.01.004)
